The values below come from ChEMBL document CHEMBL4020789, “Development of 5-hydroxypyrazole derivatives as reversible inhibitors of lysine specific demethylase 1” (Bioorg Med Chem Lett, 2017).

A value given as a limit tells only on which side of the number the result lay.

The nature of data set [1]: Half life in human microsomes. It counts as ADME, Microsome.
Data set [2] can be described thus: Apparent permeability of the compound across apical side to basolateral side in human Caco2 cells. Format: ADME, cell-based. The conditions noted are these: Caco-2. In general terms: Passage across Caco-2 layers is used to estimate intestinal permeability.
Data set [3] can be described thus: Intrinsic clearance in human microsomes assessed […]. It counts as ADME, Microsome.
A short description of data set [4]: Half life in mouse hepatocytes. Format: ADME, cell-based, Hepatocyte.
The nature of data set [5]: Oral bioavailability in mouse. Format: ADME, organism-based. The following applies: in vivo.
For data set [6], the system named is Mus musculus. Briefly: AUC in iv dosed mouse. It counts as ADME, organism-based. The conditions noted are these: in vivo.
Data set [7] in a line: Volume of distribution in mouse. It counts as ADME, organism-based. The conditions noted are these: in vivo.
Data set [8] is described as follows: Clearance in mouse. It counts as ADME, organism-based. The conditions noted are these: in vivo.
Data set [9] is described as follows: Half life in iv dosed mouse. Format: ADME, organism-based. The conditions noted are these: in vivo.
Data set [10] can be described thus: Fraction unbound in mouse. Format: ADME, organism-based. The following applies: in vivo.
A short description of data set [11]: Half life in po dosed mouse. Format: ADME, organism-based. The conditions noted are these: in vivo.
In data set [12] the target is Voltage-gated inwardly rectifying potassium channel KCNH2 (Homo sapiens, UniProt Q12809). Nature of the data set: Inhibition of human ERG by patch clamp assay.
Voltage-gated inwardly rectifying potassium channel KCNH2, sequence (Q12809 whole entry): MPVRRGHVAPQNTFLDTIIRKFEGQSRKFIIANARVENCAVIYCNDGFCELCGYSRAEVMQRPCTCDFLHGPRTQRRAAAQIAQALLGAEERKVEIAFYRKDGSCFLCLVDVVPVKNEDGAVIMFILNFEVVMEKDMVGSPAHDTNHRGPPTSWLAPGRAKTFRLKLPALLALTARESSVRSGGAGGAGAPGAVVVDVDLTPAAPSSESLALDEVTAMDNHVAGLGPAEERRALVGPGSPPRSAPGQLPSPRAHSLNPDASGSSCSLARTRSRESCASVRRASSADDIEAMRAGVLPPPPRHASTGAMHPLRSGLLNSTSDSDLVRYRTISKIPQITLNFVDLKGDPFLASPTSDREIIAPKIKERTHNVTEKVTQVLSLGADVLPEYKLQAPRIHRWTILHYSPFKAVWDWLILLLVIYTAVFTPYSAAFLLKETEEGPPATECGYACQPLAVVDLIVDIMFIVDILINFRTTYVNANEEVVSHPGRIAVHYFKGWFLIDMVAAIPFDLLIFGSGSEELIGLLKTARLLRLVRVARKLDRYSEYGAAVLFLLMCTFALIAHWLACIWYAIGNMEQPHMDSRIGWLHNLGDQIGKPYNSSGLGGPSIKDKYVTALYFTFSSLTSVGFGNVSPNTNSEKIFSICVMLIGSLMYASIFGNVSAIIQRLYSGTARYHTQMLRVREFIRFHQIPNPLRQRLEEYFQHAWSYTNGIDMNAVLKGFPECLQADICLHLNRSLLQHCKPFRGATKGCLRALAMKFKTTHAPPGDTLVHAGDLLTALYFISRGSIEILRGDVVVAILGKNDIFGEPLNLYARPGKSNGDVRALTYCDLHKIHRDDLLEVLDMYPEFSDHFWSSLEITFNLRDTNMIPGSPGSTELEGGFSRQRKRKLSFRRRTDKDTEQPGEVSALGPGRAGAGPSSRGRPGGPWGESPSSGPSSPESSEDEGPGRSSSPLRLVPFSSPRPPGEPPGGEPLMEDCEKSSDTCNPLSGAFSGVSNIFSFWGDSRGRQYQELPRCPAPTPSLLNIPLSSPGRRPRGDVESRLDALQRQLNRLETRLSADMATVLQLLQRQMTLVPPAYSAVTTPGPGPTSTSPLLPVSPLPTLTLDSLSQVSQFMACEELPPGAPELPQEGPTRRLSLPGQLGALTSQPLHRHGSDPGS

As for `N#Cc1ccc(-n2nc(C(=O)N3CCC[C@@H](N)C3)cc2OCC(O)C(F)(F)F)cc1` (some centres undefined), the half-life (as a rule, how long it takes for the measured level to halve) in data set [1] was found to be 4.17 h. Also, in [2], the Papp A→B – broadly, how fast a substance crosses the layer from the apical side – is < 0.1 ×10⁻⁶ cm/s. The same molecule showed a CL in data set [3] of 5.6 µL/min.
Regarding `Cc1cc(COc2cc(C(=O)N3CCC[C@@H](N)C3)nn2-c2ccc(C#N)cc2)on1`, the results for the half-life in data set [1] and in [4] were 3.35 h and 1.13 h, respectively. Moreover, the apparent permeability from apical to basolateral (Papp A→B) in [2] came out at 0.73 ×10⁻⁶ cm/s. The CL in data set [3] was 6.91 µL/min.
With `CCc1cc(COc2cc(C(=O)N3CCC[C@@H](N)C3)nn2-c2ccc(C#N)cc2)on1`, the half-life in data set [1] was 4.17 h; in data set [4] it was 2.02 h; in data set [9], 0.9 h; in [11] it was 1.3 h. For the same molecule, the bioavailability (as a rule, the share of a dose that reaches the circulation, judged against a reference dose that is usually intravenous) in data set [5] stood at 38%. This molecule displayed an AUC in data set [6] of 0.405 µg/h/mL. In data set [7], the Vd (usually a proportionality between amount in the body and measured concentration, not a real space) turned out to be 3.1 L/kg. Besides, in data set [8], the clearance – broadly, a measure of how efficiently the substance is removed, as volume per time – is 45.7 mL/min/kg. Besides, the apical-to-basolateral permeability (Papp A→B) in data set [2] worked out at 0.415 ×10⁻⁶ cm/s. The fraction unbound – broadly, free concentration divided by total concentration – in [10] was found to be 0.19. In [3], this molecule registered a CL of 5.6 µL/min.
On to `Cc1ccc(-c2ncc(OC[C@H]3CCNC3)cc2-c2ccc(C#N)cc2)cc1`, for which half-maximal inhibition in data set [12] (IC50) was put at 3 µM.
